For experiment [1] the following is noted: with cucurbit[7]uril; cited from earlier work.
The subject of experiment [2] is herpes simplex virus serotype two (HSV-2). Description: DNA exposure assay. The following applies: FIG. 6.
Experiment [3] has the same test system. Description: Titration by TCID50 assay (incl. guest-host chemistry assay). The format is cell-based. Particulars: mixed with the virus for 5 minutes, FIG. 3a.
In experiment [4] the test system is respiratory syncytial virus (RSV). Description: Titration by TCID50 assay. The format is cell-based. Particulars: FIG. 3b.
Experiment [5] has the same test system. The experiment is described as follows: Dose-response (plaque) assay. It counts as cell-based. Particulars: FIG. 4b.
Another experiment relates to SARS-CoV-2. It counts as cell-based.
In experiment [6] the test system is herpes simplex virus serotype two (HSV-2). The experiment is described as follows: Time of addition study. The format is cell-based. Particulars: FIG. 7.
For experiment [7] the test system is unchanged. The experiment is described as follows: Dose-response (plaque) assay. Particulars: FIG. 4a. The format is cell-based.
Experiment [8] shares this test system. The experiment is described as follows: Virucidal assay. The format is cell-based. Particulars: FIG. 5.

Like-named read-outs stand apart in the source and are kept apart here.

Usually EC50 stands for the concentration at which the effect is half-maximal. Read a high EC50 as lower potency in that assay.

For the compound `NC12CC3CC(CC(C3)C1)C2` [ADA, 1-Adamantylamine], the binding affinity in experiment [1] is given as 1.7+/−0.8×10^14 M^−1.

On to `O=C1N2CN3C(=O)N4CN5C(=O)N6CN7C(=O)N8CN9C(=O)N%10CN%11C(=O)N%12CN1C1C2N2CN%13C(=O)N(CN%14C(=O)N(CN%15C(=O)N(CN%16C(=O)N(CN%17C(=O)N(CN1C2=O)C%12C%11%17)C%10C9%16)C8C7%15)C6C5%14)C4C3%13` (stereo not shown) [cucurbit[6]uril], for which, in experiment [2], the “DNA detected following viral exposure, DNAse and PCR amplification” value is listed as “DNA was detected”. Moreover, the viral titre reduction entry in experiment [3] was “lack of viral titre reduction”. Moreover, in experiment [4], the antiviral effect entry is listed as “ineffective”.

On to `O=C1N2CN3C(=O)N4CN5C(=O)N6CN7C(=O)N8CN9C(=O)N%10CN%11C(=O)N%12CN%13C(=O)N%14CN%15C(=O)N%16CN1C1C2N2CN%17C(=O)N(CN%18C(=O)N(CN%19C(=O)N(CN%20C(=O)N(CN%21C(=O)N(CN%22C(=O)N(CN%23C(=O)N(CN1C2=O)C%16C%15%23)C%14C%13%22)C%12C%11%21)C%10C9%20)C8C7%19)C6C5%18)C4C3%17` (stereo not shown) [cucurbit[8]uril, Cucurbit[8]uril], for which the “DNA detected following viral exposure, DNAse and PCR amplification” value in experiment [2] is recorded as “No DNA was detected”. The viral titre reduction entry in experiment [3] is given as “lack of viral titre reduction”. For the same compound, in [4], the antiviral effect entry was “ineffective”.

In the case of cucurbit[7]uril, the results for the EC50 in [5] and in [7] were 1070 µg/mL and 1270 µg/mL, respectively. Also, the antiviral efficacy entry with SARS-CoV-2 is on record as “largely ineffective”; in the experiment with SARS-CoV-2 (50 mg/mL) it was “highly effective”. The viral inhibition result in [6] (added after the virus has been exposed to the cells (post-infection)) and in experiment [6] (removed prior to viral introduction (pre-treatment)) was “no viral inhibition” in each case. In [6] (added directly to the virus before infection ('during infection')), the antiviral effect entry is listed as “an antiviral effect was observed”. Moreover, the “reduction in viral titre” value in [3] (20-50 mg/mL) is “approximately 5 log”. In [8], the “mode of action (virucidal or virustatic)” value is reported as “virucidal”.
